From ChEMBL document CHEMBL5034035, “Discovery of an Oxycyclohexyl Acid Lysophosphatidic Acid Receptor 1 (LPA1) Antagonist BMS-986278 for the Treatment of Pulmonary Fibrotic Diseases” (J Med Chem, 2021) come the findings set out here.

Converted amounts (≈) assume the structure as drawn.

Data set [1] in a line: Drug metabolism in monkey hepatocytes assessed as formation of acyl glucuronides metabolites at 10 uM measured after 2 hrs by LC/UV/MS analysis. The note with it: rhesus monkey. It is filed as ADME, cell-based, Macaca mulatta, Hepatocyte.
Data set [2] in a line: Elimination half life in cynomolgus monkey at 3 mg/kg, po or 1 mg/kg, iv measured up to 24 hrs by LC-MS/MS analysis. It counts as ADME, organism-based, Macaca fascicularis. The note with it: in vivo, read-out: beta t1/2 (converted).
In the next data set the target is CYP2B6 (Homo sapiens, UniProt P20813). Briefly: Induction of CYP2B6 in human hepatocytes. It is filed as ADME, cell-based, Hepatocyte.
Chain of CYP2B6 (P20813 whole entry): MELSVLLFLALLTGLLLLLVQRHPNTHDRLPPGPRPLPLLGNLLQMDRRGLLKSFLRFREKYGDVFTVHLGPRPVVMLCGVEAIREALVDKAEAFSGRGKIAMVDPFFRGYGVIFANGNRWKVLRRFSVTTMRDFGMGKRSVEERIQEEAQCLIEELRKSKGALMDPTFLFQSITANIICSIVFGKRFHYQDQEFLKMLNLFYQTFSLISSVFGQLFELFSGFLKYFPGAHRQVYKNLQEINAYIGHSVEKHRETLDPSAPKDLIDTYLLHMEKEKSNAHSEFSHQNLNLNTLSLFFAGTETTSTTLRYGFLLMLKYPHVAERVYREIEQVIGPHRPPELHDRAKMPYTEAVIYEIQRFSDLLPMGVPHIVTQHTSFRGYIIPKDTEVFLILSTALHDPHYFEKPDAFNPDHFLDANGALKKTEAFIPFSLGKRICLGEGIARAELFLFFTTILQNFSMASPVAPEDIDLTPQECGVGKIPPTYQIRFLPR
In data set [3] the target is T1, hERG (Homo sapiens, UniProt Q12809). Briefly: Inhibition of hERG at 10 uM by electrophysiological assay relative to control. A general note: The hERG channel carries a current that helps repolarise heart muscle cells.
T1 sequence (Q12809 whole entry): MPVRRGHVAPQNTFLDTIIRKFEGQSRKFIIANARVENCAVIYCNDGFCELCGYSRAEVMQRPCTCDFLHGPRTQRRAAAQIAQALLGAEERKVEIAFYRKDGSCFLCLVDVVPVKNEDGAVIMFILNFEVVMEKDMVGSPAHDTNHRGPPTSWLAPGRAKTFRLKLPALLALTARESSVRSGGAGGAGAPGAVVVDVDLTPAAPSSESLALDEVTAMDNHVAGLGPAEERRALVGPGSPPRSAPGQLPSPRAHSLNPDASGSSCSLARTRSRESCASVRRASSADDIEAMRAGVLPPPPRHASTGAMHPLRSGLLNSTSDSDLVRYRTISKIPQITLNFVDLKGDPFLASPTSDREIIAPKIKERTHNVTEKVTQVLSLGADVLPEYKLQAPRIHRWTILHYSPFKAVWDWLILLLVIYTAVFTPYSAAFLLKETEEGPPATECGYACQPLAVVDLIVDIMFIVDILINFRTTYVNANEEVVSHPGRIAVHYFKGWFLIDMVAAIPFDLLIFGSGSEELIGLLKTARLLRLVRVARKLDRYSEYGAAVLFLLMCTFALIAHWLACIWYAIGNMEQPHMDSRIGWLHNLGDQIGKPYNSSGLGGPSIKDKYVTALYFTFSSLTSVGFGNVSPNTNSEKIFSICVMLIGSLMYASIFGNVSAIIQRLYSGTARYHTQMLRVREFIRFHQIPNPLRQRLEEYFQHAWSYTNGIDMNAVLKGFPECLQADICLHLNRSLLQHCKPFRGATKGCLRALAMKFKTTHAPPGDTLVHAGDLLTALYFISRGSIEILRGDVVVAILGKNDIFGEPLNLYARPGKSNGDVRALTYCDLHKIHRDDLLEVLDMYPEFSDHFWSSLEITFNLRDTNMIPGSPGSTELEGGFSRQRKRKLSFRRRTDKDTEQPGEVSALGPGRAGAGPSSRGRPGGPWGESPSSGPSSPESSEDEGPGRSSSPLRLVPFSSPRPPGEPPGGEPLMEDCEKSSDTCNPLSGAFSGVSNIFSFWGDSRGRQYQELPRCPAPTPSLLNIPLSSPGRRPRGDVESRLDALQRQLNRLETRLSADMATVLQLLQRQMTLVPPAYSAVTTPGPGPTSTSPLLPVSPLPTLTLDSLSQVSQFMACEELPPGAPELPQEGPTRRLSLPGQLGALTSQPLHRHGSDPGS
Data set [4] can be described thus: Protein binding in Cynomolgus monkey plasma assessed as free fraction at 3 mg/kg, po or 1 mg/kg, iv measured up to 24 hrs by LC-MS/MS analysis. It counts as ADME, organism-based, Macaca fascicularis.
Data set [5] in a line: Metabolic stability in liver microsomes (unknown origin) assessed as half life. It is filed as ADME, Microsome.
The nature of data set [6]: AUC (0 to 24 hrs) in Cynomolgus monkey plasma at 500 mg/kg, po administered for 4 weeks. It counts as ADME, organism-based, Macaca fascicularis. Details: route oral, time 4 weeks, dose 500 mg/kg.
The nature of data set [7]: Plasma clearance in Sprague-Dawley rat at 3 mg/kg, po or 1 mg/kg, iv measured up to 24 hrs by LC-MS/MS analysis. It is filed as ADME, organism-based.
Data set [8] in a line: Drug metabolism in human hepatocytes assessed as formation of acyl glucuronide metabolites at 10 uM measured after 2 hrs by LC/UV/MS analysis. It is filed as ADME, cell-based, Hepatocyte.
Data set [9] in a line: Oral bioavailability in CD-1 mouse at 3 mg/kg measured up to 24 hrs by LC-MS/MS analysis. It is filed as ADME, organism-based. The following applies: in vivo.
Data set [10] can be described thus: Hepatobiliary toxicity in Cynomolgus monkey assessed as cholestasis measured up to 1 month. Details: species or system Macaca fascicularis. The following applies: time <=1 months.
Data set [11] can be described thus: Hepatobiliary toxicity in Cynomolgus monkey assessed as cholangitis measured up to 1 month. The arrangement: species or system Macaca fascicularis. The note with it: in vivo, time <=1 months.
Data set [12] in a line: Hepatobiliary toxicity in Cynomolgus monkey assessed as bile duct hyperplasia measured up to 1 month. The note with it: in vivo, time <=1 months. The arrangement: species or system Macaca fascicularis.
The nature of data set [13]: Volume of distribution at steady state in cynomolgus monkey at 3 mg/kg, po or 1 mg/kg, iv measured up to 24 hrs by LC-MS/MS analysis. It is filed as ADME, organism-based, Macaca fascicularis. The note with it: in vivo, read-out: Vdss.
A short description of data set [14]: Aqueous solubility of compound at pH 7.4. It is filed as physicochemical.
Data set [15] can be described thus: Drug metabolism in monkey hepatocytes assessed as N-demethylation metabolite formation at 10 uM measured after 2 hrs by LC/UV/MS analysis. It counts as ADME, cell-based, Macaca mulatta, Hepatocyte. The following applies: rhesus monkey.
Data set [16] in a line: Hepatobiliary toxicity in Sprague-Dawley rat assessed as bile duct hyperplasia at up to 100 mg/kg/day measured up to 6 months. It is filed as organism-based. The following applies: in vivo.
Data set [17] is described as follows: AUC (0 to 24 hrs) in Sprague-Dawley rat plasma at 300 mg/kg/day. It is filed as ADME, organism-based. Details: time < 24 hr, dose 300 mg/kg/day.
A short description of data set [18]: AUC (0 to 24 hrs) in Cynomolgus monkey plasma at 150 mg/kg/day. It counts as ADME, organism-based, Macaca fascicularis. The arrangement: time < 24 hr, dose 150 mg/kg/day.
A short description of data set [19]: Hepatobiliary toxicity in Cynomolgus monkey assessed as cholestasis at up to 150 mg/kg/day measured up to 9 month. It counts as organism-based, Macaca fascicularis. The note with it: in vivo, time <=9 months.
A short description of data set [20]: animal or person. The note with it: Mus musculus, CD-1.
Data set [21] concerns the target T1, hERG. Briefly: Inhibition of hERG at 30 uM by electrophysiological assay relative to control.
Data set [22] can be described thus: animal or person. The note with it: Mus musculus, CD-1. The source holds these as a separate data set.
Data set [23] in a line: Hepatobiliary toxicity in Cynomolgus monkey assessed as cholangitis at up to 150 mg/kg/day measured up to 9 months. It counts as organism-based, Macaca fascicularis. The note with it: in vivo.
Data set [24] can be described thus: Drug metabolism in dog hepatocytes assessed as carbamate hydrolytic product formation at 10 uM measured after 2 hrs by LC/UV/MS analysis. It is filed as ADME, cell-based, Canis lupus familiaris, Hepatocyte.
Data set [25] can be described thus: Hepatobiliary toxicity in Cynomolgus monkey assessed as bile duct hyperplasia at up to 150 mg/kg/day measured up to 9 months. The following applies: in vivo. It counts as organism-based, Macaca fascicularis.
The subject of data set [26] is Rattus norvegicus. Briefly: Anti-fibrotic activity in Sprague-Dawley rat model of bleomycin-induced lung fibrosis assessed as decrease in bleomycin-induced collagen deposition at 10 mg/kg, po BID followed by tracheal administration of bleomycin on day 8 and measured on day 21 by Masson's trichrome staining based HALO densitometric analysis relative to control. It is filed as functional. The arrangement: scale not given: the % may be the effect or the level left. The following applies: time 21 day.

For data set [27], the system named is Rattus norvegicus. Kind of data set: Anti-fibrotic activity in Sprague-Dawley rat model of bleomycin-induced lung fibrosis assessed as decrease in bleomycin-induced collagen deposition at 30 mg/kg, po BID followed by tracheal administration of bleomycin on day 8 and measured on day 21 by Masson's trichrome staining based HALO densitometric analysis relative to control. Details: scale not given: the % may be the effect or the level left. It counts as functional.

Data set [28] is described as follows: Drug metabolism in mouse hepatocytes assessed as carbamate hydrolytic product formation at 10 uM measured after 2 hrs by LC/UV/MS analysis. It is filed as ADME, cell-based, Hepatocyte.
A short description of data set [29]: Hepatobiliary toxicity in Sprague-Dawley rat assessed as cholestasis at up to 100 mg/kg/day measured up to 6 month. It is filed as organism-based. The note with it: in vivo, time <=6 months.
Data set [30] in a line: Drug metabolism in human hepatocytes assessed as N-demethylation metabolite formation at 10 uM measured after 2 hrs by LC/UV/MS analysis. It is filed as ADME, cell-based, Hepatocyte.
For data set [31], the system named is Rattus norvegicus. Kind of data set: Anti-fibrotic activity in Sprague-Dawley rat model of bleomycin-induced lung fibrosis assessed as decrease in bleomycin-induced collagen deposition at 3 mg/kg, po BID followed by tracheal administration of bleomycin on day 8 and measured on day 21 by Masson's trichrome staining based HALO densitometric analysis relative to control. It counts as functional. Details: scale not given: the % may be the effect or the level left. The note with it: time 21 day.

Data set [32] can be described thus: Aqueous solubility of compound at pH 7.5. It counts as physicochemical.
A short description of data set [33]: Hepatobiliary toxicity in Sprague-Dawley rat assessed as cholangitis at up to 100 mg/kg/day measured up to 6 months. It is filed as organism-based. The following applies: in vivo.
Data set [34] can be described thus: Drug metabolism in rat hepatocytes assessed as N-demethylation metabolite formation at 10 uM measured after 2 hrs by LC/UV/MS analysis. It counts as ADME, cell-based, Hepatocyte.
The nature of data set [35]: Drug metabolism in monkey hepatocytes assessed as carbamate hydrolytic product formation at 10 uM measured after 2 hrs by LC/UV/MS analysis. It counts as ADME, cell-based, Macaca mulatta, Hepatocyte. The following applies: rhesus monkey.
The test system of data set [36] is Rattus norvegicus. Briefly: Anti-fibrotic activity in Sprague-Dawley rat model of bleomycin-induced lung fibrosis assessed as decrease in bleomycin-induced collagen deposition by measuring decrease in PSR-stained lung sections at 30 mg/kg, po BID for 21 days followed by tracheal administration of bleomycin by PSR staining based HALO densitometric analysis relative to control. It is filed as functional. The arrangement: scale not given: the % may be the effect or the level left. The following applies: time 21 day.

Another data set deals with hERG (KCNH2) (Homo sapiens, UniProt Q12809). Briefly: Inhibition of hERG at 15 uM by electrophysiological assay relative to control.
Chain of hERG (KCNH2) (Q12809 whole entry): as above
Data set [37] can be described thus: AUC (0 to 24 hrs) in Cynomolgus monkey plasma at 50 mg/kg, po administered for 7 days. It counts as ADME, organism-based, Macaca fascicularis. Details: route oral, time 7 day, dose 50 mg/kg.

A word on the IC50: it is the concentration at which inhibition is half-maximal. One may read the inhibition as how much of the control response was suppressed. By fraction unbound is commonly meant the share of the substance not bound to proteins or other matrix. By AUC is commonly meant concentration integrated over time. Broadly, the bioavailability is dose-corrected exposure relative to a reference, in per cent. The solubility is the concentration that dissolves in the medium under given conditions. Regarding `Cc1nc(-c2nnn(C)c2COC(=O)N(C)CC2CCC2)ccc1O[C@H]1CCC[C@H](C(=O)O)C1`, the Drug metabolism result in [1] and in data set [8] was “Metabolite_Detected” throughout. Moreover, the half-life in data set [2] was 14 h; in data set [5], over 0.917 h. This compound yielded an IC50 on CYP2B6 of over 50 µM. This compound yielded an inhibition at 10 µM on hERG [3] of 6%. Further, the fraction unbound at 24 h in [4] is 0.009. In addition, the AUC at 672 h in data set [6] was 962 µg·h/mL. In [7], this compound displayed a clearance of 104 mL/min/kg. Also, the bioavailability in data set [9] was 91%. Also, the Activity result in data set [10], in data set [11] and in data set [12] was “Non-Toxic” in each case. The Vd in [13] is 6.3 L/kg. In addition, the concentration in solution in data set [14] (solubility) came to 705 µg/mL (≈ 1500 µM).
Regarding `CCCN(C)C(=O)OCc1c(-c2ccc(O[C@H]3CCC[C@H](C(=O)O)C3)c(C)n2)nnn1C` [ADMILPARANT], the Drug metabolism entry in data set [1], in [15], in [24], in data set [28], in [30] and in [34] was “Metabolite_Detected” each time. In addition, the Drug metabolism result in [35] is listed as “Metabolite_Detected”. The Activity entry in data set [16] was “Non-Toxic”; in [19], “Non-Toxic”; in data set [23], “Non-Toxic”; in data set [25], “Non-Toxic”; in the data set on Rattus norvegicus [26] it was 56%; in the data set on Rattus norvegicus [27] it was 41%. For the same compound, the Activity result in data set [29] is “Non-Toxic”; in the data set with Rattus norvegicus [31] it was 48%; in data set [33] it was “Non-Toxic”. In data set [2], the half-life is 11 h. In addition, the AUC at 24 h in data set [17] and in [18] was 1140 µg·h/mL in each case. Also, the IC50 in “animal or person [20]” was 48 µM; in “animal or person [22]” it was 174 µM. Besides, on hERG [21], the inhibition at 30 µM worked out at 35%. Moreover, the fraction unbound at 24 h in [4] was determined as 0.008. In addition, in [7], the clearance came to 15 mL/min/kg. Besides, the bioavailability in data set [9] worked out at 70%. Also, the solubility in data set [32] is 6210 µg/mL (≈ 13900 µM). Moreover, in data set [13], the Vd stood at 1.6 L/kg.
In the case of `Cc1noc(-c2ccc(-c3ccc(C4(C(=O)O)CC4)cc3)cc2)c1NC(=O)O[C@H](C)c1ccccc1` [BMS-986020], at CYP2B6, the 50% inhibitory concentration (IC50) is over 50 µM. The Activity with Rattus norvegicus [36] is on record as 63%. Also, testing at 15 µM against hERG (KCNH2) gave an inhibition of 7%. The AUC at 168 h in data set [37] was determined as 74 µg·h/mL. Moreover, the solubility in [14] came out at 11 µg/mL (≈ 22.8 µM).
